Results reported in patent US12427212B2, “Nectin-4 binding miniproteins, conjugates and uses thereof” (Aktis Oncology, Inc., priority 2023, dated 2025).
pKd: −log10 of the molar value. Where two headings read alike, the source gives them in different places. Bridges are numbered along the chain shown (N, C = ends). [ ]: non-standard residue; d: D form. The star is where a group is joined. DOTA = O=C(O)CN1CCN(CC(=O)O)CCN(CC(=O)*)CCN(CC(=O)O)CC1; Biotin = O=C1N[C@H]2[C@H](CS[C@H]2CCCCC(=O)*)N1; Lys(Me3) = C[N+](C)(C)CCCC[C@H](N)C(=O)O; Cit = NC(=O)NCCC[C@H](N)C(=O)O; PEG4 = NCCOCCOCCOCCOCCC(=O)O

How the values were obtained:
[1] = In vivo biodistribution of 111In-labeled miniproteins by SPECT/CT, HT-1376 xenograft; parameters: species or system mouse; conditions: female, athymic nude, mouse, in vivo
Text: HT-1376 is a human cell line that expresses Nectin-4.
Humane endpoints: All animals were euthanized following the final imaging time point and carcasses were discarded according to IACUC protocols.
Image Processing: Images were generated as SPECT/CT pairs with the SPECT reported in units of activity.
Image generation: After the preprocessing described in A, individual maximum intensity projections (MIPs) were created with VivoQuant software for each subject at each time point and scaled in percent injected dose per gram (% ID/g). The CT for each image was windowed from −500 to 4500 Hounsfield Units (HU). The SPECT was windowed at various ranges to highlight different regions of uptake. Images were then stitched together using Image Magick based python tools to create montages of subjects over time and time points over groups.

Nectin-4 = target: T1, Nectin-4 (Homo sapiens, UniProt Q96NY8); assay: DELFIA whole cell binding assay, equilibrium binding affinity (KD), Table 2B
T1 sequence (Q96NY8 32-510): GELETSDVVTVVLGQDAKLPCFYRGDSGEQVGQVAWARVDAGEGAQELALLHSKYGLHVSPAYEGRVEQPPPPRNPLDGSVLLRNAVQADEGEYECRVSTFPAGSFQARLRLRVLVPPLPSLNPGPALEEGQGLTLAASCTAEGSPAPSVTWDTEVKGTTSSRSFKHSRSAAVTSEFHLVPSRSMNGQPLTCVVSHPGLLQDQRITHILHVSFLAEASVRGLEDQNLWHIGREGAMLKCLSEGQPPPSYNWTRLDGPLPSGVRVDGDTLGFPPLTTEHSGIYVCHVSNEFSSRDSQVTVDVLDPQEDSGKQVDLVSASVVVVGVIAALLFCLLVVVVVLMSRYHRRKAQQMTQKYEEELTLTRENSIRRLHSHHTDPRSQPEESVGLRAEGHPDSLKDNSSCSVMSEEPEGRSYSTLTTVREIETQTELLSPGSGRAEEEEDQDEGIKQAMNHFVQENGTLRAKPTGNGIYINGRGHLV
Experimental: A whole cell binding assay was used to estimate the equilibrium binding affinity (KD) or binding inhibition constant (Ki) of miniprotein ligands to cells expressing a target of interest. Cells were dispensed into a 384-well plate and incubated at 37° C., in 5% CO2 overnight. The next day cells were gently washed once in assay buffer prior to addition of europium chelated ligand. For KD determination, a miniprotein conjugated with europium chelate (DOTA or DTPA) in the presence or absence of 100-fold excess un-conjugated ligand was incubated with cells over 12 different concentrations ranging from 100 times below and above expected KD values. For Ki determination, a single concentration (KD equivalent concentration) of europium-chelate miniprotein was added to each well followed immediately by the addition of unconjugated competing ligand over 12 different concentrations ranging from 100 times below and above expected Ki values as before. The plate was incubated for 1.5 h at room temperature to reach binding equilibrium. Cells were then washed three times at room temperature with 1×PBS followed by the addition of 2 M HCl and incubated for two h at 37° C. Following this step, 2 M NaOH and fluorescent inducer solution were added to each well and incubated for 30 minutes at room temperature according to the manufacturer's protocol (Perkin-ELMER DELFIA assay). Plates were read on an Envision plate reader and a curve-fitting model was applied to estimate KD and Ki values using GraphPad Prism software. Mean DELFIA K; values for exemplary miniproteins are recorded in TABLE 9A.

[2] = Table 2B, binding to Nectin-4, read-out: Binding Affinity (KD)

Molecule	pKd (Nectin-4)	other results
CC[C@H](C)[C@@H]1NC(=O)[C@H](Cc2ccc(O)cc2)NC(=O)[C@H](Cc2ccc(O)cc2)NC(=O)[C@@H]2CSSC[C@@H](C(=O)O)NC(=O)CNC(=O)[C@H](CC(C)C)NC(=O)[C@H](CC(N)=O)NC(=O)[C@H](CCC(=O)O)NC(=O)[C@H](CC(C)C)NC(=O)[C@H]([C@@H](C)CC)NC(=O)[C@H](CCC(=O)O)NC(=O)[C@H](CCC(=O)O)NC(=O)[C@H]([C@@H](C)CC)NC(=O)[C@H](CSSC[C@H](NC(C)=O)C(=O)N[C@@H](CCC(=O)O)C(=O)N[C@@H](Cc3ccc(O)cc3)C(=O)N[C@@H](CC(=O)O)C(=O)N[C@@H](CCC(=O)O)C(=O)N[C@@H](CCC(N)=O)C(=O)N[C@@H](Cc3ccccc3)C(=O)N[C@@H](Cc3ccccc3)C(=O)N[C@@H]([C@@H](C)O)C(=O)N[C@@H](C)C(=O)N[C@@H](CC(C)C)C(=O)N[C@@H](CCCCN)C(=O)N[C@@H](CCCNC(=N)N)C(=O)N[C@@H](CC(C)C)C(=O)N[C@@H](CCCNC(=N)N)C(=O)NCC(=O)NCC(=O)N[C@@H](CC(=O)O)C(=O)N[C@@H]([C@@H](C)CC)C(=O)N2)NC(=O)[C@H](CC(C)C)NC(=O)[C@H](CC(=O)O)NC(=O)[C@@H]2CCCN2C(=O)[C@H](CC(C)C)NC(=O)[C@H]([C@@H](C)O)NC(=O)[C@H](CC(N)=O)NC(=O)[C@H](Cc2ccccc2)NC(=O)[C@H](CCC(N)=O)NC(=O)[C@H](C)NC(=O)[C@H](CO)NC1=O [Compound C100]		tissue uptake at 4 h [1]: 112 %ID/g; tissue uptake at 24 h [1]: 61.8 %ID/g
Ac-CEYDEEFFAGLKRLRRGDICYYIKKKFDKVPDLCIEEILDKLGC-OH (disulfide 1-34, 20-44) [Compound C14]		pKd (Nectin-4; [2]): 7.85
Ac-CEYDEEFFKGLKRLRGGDICYYIKKKFKKVPKLCIEEILDKLGC-OH (disulfide 1-34, 20-44) [Compound C80]		pKd (Nectin-4; [2]): 8.57
Ac-CEYDEEFFLGLKRLRGGDICYYIKKKFKKVPDLCIEEILDKLGC-OH (disulfide 1-34, 20-44) [Compound C34]		pKd (Nectin-4; [2]): 8.50
Ac-CEYDEEFFLGLKRLRGGDICYYIKKKFKKVPDLCIEEILEKLGC-OH (disulfide 1-34, 20-44) [Compound C60]		pKd (Nectin-4; [2]): 8.50
Ac-CEYDEEFFLGLKRLRGGDICYYIKKKFKKVPELCIEEILKKLGC-OH (disulfide 1-34, 20-44) [Compound C67]		pKd (Nectin-4; [2]): 8.58
Ac-CEYDEEFFTALARLRGGDICYYIQAKFQYLPGLCIEEILDNLGCS-OH (disulfide 1-34, 20-44) [Compound C124]		pKd (Nectin-4; [2]): 8.96
Ac-CEYDEKFFTGLKRLRGGDICYYIKKKFKKVPKLCIEEILDKLGC-OH (disulfide 1-34, 20-44) [Compound C70]		pKd (Nectin-4; [2]): 8.66
{Biotin-PEG4}-CDYDEEFFTALA[Cit]LRGGDICEYIQAKFQYLPGLCIEEILDNLGCS-OH (disulfide 1-34, 20-44) [Compound C176]	8.89	
{Biotin-PEG4}-CDYDEEFFTALKRLRGDDICSYIQASFQYLPGLCIEEILDNLGCS-OH (disulfide 1-34, 20-44) [Compound C192]	8.89	
{Biotin-PEG4}-CDYDEEFFTALKRLRGGDICEYIQASFQYLPGLCIEEILDNLGCS-OH (disulfide 1-34, 20-44) [Compound C188]	8.80	
{Biotin-PEG4}-CEYDEAFFTALARLRGGDICQYIQAKFQYLPGLCIEEILDNLGCS-OH (disulfide 1-34, 20-44) [Compound C151]	9.17	
{Biotin-PEG4}-CEYDEEFFTALARLRGGDICEYIQAKFQYLPKLCIEEILDNLGCS-OH (disulfide 1-34, 20-44) [Compound C167]	8.92	
{Biotin-PEG4}-CEYDEEFFTALARLRGGDICQYIQAKFAYVPGLCIEEILDNLGCS-OH (disulfide 1-34, 20-44) [Compound C155]	8.96	
{Biotin-PEG4}-CEYDEEFFTALARLRGGDICYYIQAYFQYLPGLCIEEILDNLGCS-OH (disulfide 1-34, 20-44) [Compound C165]	8.39	
{Biotin-PEG4}-CEYDEEFFTALA[Cit]LRGDDICSYIQAKFQYLPGLCIEEILDNLGCS-OH (disulfide 1-34, 20-44) [Compound C172]	8.74	

Molecule	pKd (Nectin-4)	other results
{Biotin-PEG4}-CEYDEEFFTALA[Cit]LRGGDICEYIQAKFQYLPGLCIEEILDNLGCS-OH (disulfide 1-34, 20-44) [Compound C171]	8.66	
{Biotin-PEG4}-CEYDEEFFTALA[Cit]LRGGDICSYIQAKFQYLPGLCIEEILDNLGCS-OH (disulfide 1-34, 20-44) [Compound C175]	8.64	
{Biotin-PEG4}-CEYDEEFFTALKRLRGDDICEYIQASFQYLPGLCIEEILDNLGCS-OH (disulfide 1-34, 20-44) [Compound C181]	8.52	
{Biotin-PEG4}-CEYDEEFFTALKRLRGDDICYYIQASFQYLPGLCIEEILDNLGCS-OH (disulfide 1-34, 20-44) [Compound C180]	8.57	
{Biotin-PEG4}-CEYDEEFFTALKRLRGGDICEYIQASFQYLPGLCIEEILDNLGCS-OH (disulfide 1-34, 20-44) [Compound C178]	8.85	
{Biotin-PEG4}-CEYDEEFFTALKRLRGGDICEYIQA[Lys(Me3)]FQYLPGLCIEEILDNLGCS-OH (disulfide 1-34, 20-44) [Compound C201]	9.17	
{Biotin-PEG4}-CEYDEEFFTALKRLRGGDICYYIQAKFQYLPKLCIEEILDNLGCS-OH (disulfide 1-34, 20-44) [Compound C119]	9.02	
{Biotin-PEG4}-CEYDEEFFTALKRLRGGDICYYIQASFQYLPGECIEEILDNLGCS-OH (disulfide 1-34, 20-44) [Compound C177]	8.70	
{Biotin-PEG4}-CEYDEQFFTALARLRGGDICEYIQAKFQYLPGLCIEEILDNLGCS-OH (disulfide 1-34, 20-44) [Compound C146]	9.27	
{Biotin-PEG4}-CEYDEQFFTALKRLRGADICDYIQASFQYLPGLCIEEILDNLGCS-OH (disulfide 1-34, 20-44) [Compound C194]	8.96	
{Biotin-PEG4}-CEYDEQFFTALKRLRGGDICDYIQASFQYLPGLCIEEILDNLGCS-OH (disulfide 1-34, 20-44) [Compound C196]	8.80	
{DOTA-PEG4}-CEYDEEFFTALKRLRGGDICYYIQKAFQYLPGLCIEEILDNLGCS-OH (disulfide 1-34, 20-44) [Compound C121]		tissue uptake at 4 h [1]: 100 %ID/g; tissue uptake at 24 h [1]: 60.4 %ID/g
{DOTA-PEG4}-CEYDEEFFTALSRLRGGDICYYIQQAFQYLPGLCIEEILDNLGCS-OH (disulfide 1-34, 20-44) [Compound C133]		tissue uptake at 4 h [1]: 43.8 %ID/g; tissue uptake at 24 h [1]: 20.9 %ID/g
{DOTA-PEG4}-CEYDEQFFTALARLRGGDICYYIQEQFATVPGLCIEEILDQLGCS-OH (disulfide 1-34, 20-44) [Compound C129]		tissue uptake at 4 h [1]: 43.5 %ID/g; tissue uptake at 24 h [1]: 19.9 %ID/g
{DOTA-PEG4}-CEYDEQFFTALSSLRGGDICYYIQEQFANVPGICIEEILDNLGCS-OH (disulfide 1-34, 20-44) [Compound C137]		tissue uptake at 4 h [1]: 78.8 %ID/g; tissue uptake at 24 h [1]: 42.9 %ID/g
